Reference: patent publication US7524930B2, “Tumor antigen” (Green Peptide Co., Ltd, priority 2003, dated 2009)

Assays:
Assay type in all cases: cell-based, human
OK-CTLp or OK-CTL clone = experiment: Recognition of peptide-pulsed T2 cells by OK-CTLp or OK-CTL clone (IFN-γ ELISA)
[1] = tested on: peripheral blood mononuclear cells derived from a cancer patient; experiment: CTL induction by peptide from autologous PBMC of cancer patient, IFN-γ production on recognition of target cells (Example 5); settings: for Recognition of tumor cells by PBMC stimulated in vitro with peptide (IFN-γ production): SW620, CA9-22 and Panc-1 HLA-A2+ tumor cells, result in words; for IFN-γ production from peripheral blood mononuclear cells in recognition of target cells: PBMC stimulated with 10 μM peptide
Source text: Among the peptides that were able to enhance IFN-γ production from the OK-CTLp or OK-CTL clone in Example 4, those from P1 to P19 were examined for their ability to induce CTL from peripheral blood mononuclear cells derived from a cancer patient. The method for inducing CTL by a peptide was according to the well-known method (J. Exp. Med., 187:277-288, 1998; Cancer Res., 59:4056-4063, 1999.) Specifically, autologous peripheral blood mononuclear cells (PBMC) derived from a cancer patient, from whom OK-CTLp was obtained, were incubated together with the peptide (10 μM.) The cells were re-stimulated at day 10 and 14 after the start of culturing, using autologous PBMCs as an antigen presenting cell (APC) which were pulsed with 10 μM of the same peptide for 2 h and exposed to irradiation (30 gray.) At day 21 after the start of culturing, the cells were collected to test for surface phenotype. In addition, the cells were examined for the recognition of various target cells, using IFN-γ production measured by ELISA when they were cultured together with the target cells as an indicator. As a target cells, SW620 cell, CA9-22 cell, and Panc-1 cell, which are the HLA-A2^+ tumor cells, were used.

[2] = tested on: peripheral blood mononuclear cells derived from a cancer patient; experiment: as above; settings: PBMC stimulated with 10 μM peptide
[3] = concentration of peptide 0.1 μM

| Sequence | IFN-γ production (OK-CTLp or OK-CTL clone; [3]) | IFN-γ production (OK-CTLp or OK-CTL clone; concentration of peptide 10 μM) | IFN-γ production (OK-CTLp or OK-CTL clone; concentration of peptide 50 μM) | IFN-γ production (OK-CTLp or OK-CTL clone; concentration of peptide 1 μM) | Recognition of tumor cells by PBMC stimulated in vitro with peptide (IFN-γ production) [1] | IFN-γ production from peripheral blood mononuclear cells in recognition of target cells ([1]; target CA9-22 (HLA-A0207/24)) | IFN-γ production from peripheral blood mononuclear cells in recognition of target cells ([1]; target Panc-1 (HLA-A0201/11)) | IFN-γ production from peripheral blood mononuclear cells in recognition of target cells ([1]; target SW620 (HLA-A0201/24)) | IFN-γ production from peripheral blood mononuclear cells in recognition of target cells ([2]; target COLO320 (HLA-A24/24)) | IFN-γ production from peripheral blood mononuclear cells in recognition of target cells ([2]; target QG56 (HLA-A26/26)) | IFN-γ production from peripheral blood mononuclear cells in recognition of target cells ([2]; target RERF-LC-MS (HLA-A11/11)) |
| --- | --- | --- | --- | --- | --- | --- | --- | --- | --- | --- | --- |
| YQLPDWRLV [Peptide P29] | 0 pg/mL | 86 pg/mL | 362 pg/mL | – | – | – | – | – | – | – | – |
| ELLNRYLYL [Peptide P27] | 352 pg/mL | 250 pg/mL | 0 pg/mL | 889 pg/mL | – | – | – | – | – | – | – |
| SLLYLNQSV [Peptide P20] | 344 pg/mL | 0 pg/mL | 34 pg/mL | 643 pg/mL | – | – | – | – | – | – | – |
| QILKGLLFL (Designed peptide having an ability to activate HLA-A2 restricted Cytotoxic T lymphocytes) [Peptide P16, Gene 5 (ppMAPkkk) 290-298] | – | – | – | – | induced CTL recognizing any one of the HLA-A2^+ tumor cells | 147 pg/mL | 113 pg/mL | 0 pg/mL | 0 pg/mL | 0 pg/mL | 0 pg/mL |
| MLPLECQYL (Designed peptide having an ability to activate HLA-A2 restricted Cytotoxic T lymphocytes) [Peptide P12, Gene 3 (WHSC2) 157-165] | – | – | – | – | induced CTL recognizing any one of the HLA-A2^+ tumor cells | 0 pg/mL | 197 pg/mL | 46 pg/mL | 40 pg/mL | 0 pg/mL | 0 pg/mL |
| LLLLARWEDT (Designed peptide having an ability to activate HLA-A2 restricted Cytotoxic T lymphocytes) [Peptide P2, Gene 1 (UBE2V) 64-73] | – | – | – | – | induced CTL recognizing any one of the HLA-A2^+ tumor cells | 0 pg/mL | 0 pg/mL | 53 pg/mL | 5 pg/mL | 0 pg/mL | 0 pg/mL |
| ASLDSDPWV (Designed peptide having an ability to activate HLA-A2 restricted Cytotoxic T lymphocytes) [Peptide P10, Gene 3 (WHSC2) 103-111] | – | – | – | – | produced IFN-γ in a significant amount | 130 pg/mL | 163 pg/mL | 108 pg/mL | 0 pg/mL | 0 pg/mL | 0 pg/mL |
| ALVEFEDVL (Designed peptide having an ability to activate HLA-A2 restricted Cytotoxic T lymphocytes) [Peptide P6, Gene 2 (HNRPL) 140-148] | – | – | – | – | produced IFN-γ in a significant amount | 863 pg/mL | 527 pg/mL | 344 pg/mL | 40 pg/mL | 0 pg/mL | 8 pg/mL |
| DLLSHAFFA [Peptide P18] | – | – | – | – | produced IFN-γ in a significant amount | 70 pg/mL | >1000 pg/mL | >1000 pg/mL | 0 pg/mL | 29 pg/mL | 0 pg/mL |
| ILGELREKV (Designed peptide having an ability to activate HLA-A2 restricted Cytotoxic T lymphocytes) [Peptide P11, Gene 3 (WHSC2) 141-149] | – | – | – | – | produced IFN-γ in a significant amount | 62 pg/mL | >1000 pg/mL | 893 pg/mL | 0 pg/mL | 0 pg/mL | 0 pg/mL |
| CLYGNVEKV (Designed peptide having an ability to activate HLA-A2 restricted Cytotoxic T lymphocytes) [Peptide P7, Gene 2 (HNRPL) 404-412] | – | – | – | – | induced CTL recognizing any one of the HLA-A2^+ tumor cells | 0 pg/mL | 54 pg/mL | 344 pg/mL | 0 pg/mL | 0 pg/mL | 0 pg/mL |
| RIQEWCSVI (RLQEWCSVI; Designed peptide having an ability to activate HLA-A2 restricted Cytotoxic T lymphocytes) [Peptide P1, Gene 1 (UBE2V) 43-51] | – | – | – | – | produced IFN-γ in a significant amount | 81 pg/mL | 492 pg/mL | 235 pg/mL | 50 pg/mL | 0 pg/mL | 26 pg/mL |
| NVLHFFNAPL (Designed peptide having an ability to activate HLA-A2 restricted Cytotoxic T lymphocytes) [Peptide P9, Gene 2 (HNRPL) 501-510] | – | – | – | – | produced IFN-γ in a significant amount | 98 pg/mL | 339 pg/mL | 194 pg/mL | 0 pg/mL | 0 pg/mL | 27 pg/mL |
| LLQDWHVIL (Designed peptide having an ability to activate HLA-A2 restricted Cytotoxic T lymphocytes) [Peptide P4, Gene 1 (UBE2V) 201-209] | – | – | – | – | induced CTL recognizing any one of the HLA-A2^+ tumor cells | 0 pg/mL | 0 pg/mL | 60 pg/mL | 0 pg/mL | 0 pg/mL | 0 pg/mL |
| FMFGQKLNV (Designed peptide having an ability to activate HLA-A2 restricted Cytotoxic T lymphocytes) [Peptide P8, Gene 2 (HNRPL) 443-451] | – | – | – | – | produced IFN-γ in a significant amount | 165 pg/mL | 186 pg/mL | 142 pg/mL | 0 pg/mL | 0 pg/mL | 26 pg/mL |
